Results: patent publication US11020405B2, “Method for prevention or treatment of diabetic complications” (KANGWON NATIONAL UNIVERSITY UNIVERSITY-INDUSTRY COOPERATION …, priority 2017, dated 2021)

Columns and labels:
β-catenin = test: Analysis of adherens junction (β-catenin staining); type: cell-based, human; conditions: HRECs, 10 ng/mL VEGF 90 min with 20 μM midazolam, 5 μM BAPTA-AM, 1 mM NAC, 0.5 μM Trolox, 50 μM cystamine or 20 μM MDC (FIGS. 8, 9)
Protocol: Purchased from Applied Cell Biology Research Institute (Cell Systems, Kirkland, Wash.), human retinal endothelial cells (HRECs) were cultured in an M19 medium, containing 20% FBS, 3 ng/mL bFGF, 5 U/mL heparin, 100 U/mL penicillin and […], in a 2% gelatin-coated plate.
Before the following Test Examples 2 to 7, the HRECs were cultured for 6 hr in a medium containing 1% FBS and an antibiotic agent, thus preparing HRECs of Test Example 1.
The HRECs of Test Example 1 were subjected to the respective treatments below and cultured for 30 min. Here, treatment with 10 ng/mL VEGF was performed for 90 min. Thereafter, the HRECs were treated with 1 mM 5-(biotinamido)pentylamine, incubated for 1 hr, fixed with 3.7% formaldehyde, treated with 0.2% triton X-100, treated with a blocking solution containing 138 mM NaCl, 0.1% Tween 20 and 2% BSA dissolved in a 20 mM Tris (pH 7.6) buffer, incubated for 30 min, incubated with a monoclonal β-catenin antibody (1:200; Santa Cruz Biotechnology) for 12 hr or more, incubated with a FITC-conjugated goat anti-mouse antibody, and measured using confocal microscopy. Some (the following i), ii), iii), iv)) of the results are shown in FIG. 8, and the β-catenin concentrations in the portions represented by the dotted lines in FIG. 8 are shown in FIG. 9. With reference to FIG. 9, 10 randomly selected cells were measured to determine the fluorescence intensity of single cells and thus quantify β-catenin.
β-catenin, which is a protein that mediates adherens junction like VE-cadherin, was analyzed to evaluate adherens junction.

[1] = test system: human retinal endothelial cells (HRECs); test: Identification of receptor of midazolam through ROS concentration analysis; type: cell-based
Protocol: With reference to FIG. 10A, the HRECs of Test Example 1 were subjected to the respective treatments below, cultured for 10 min, treated with 10 μM H2DCFDA, stained for 10 min in a phenol-red-free low-serum medium, and measured using confocal microscopy to thus determine the fluorescence intensity of single cells.
(§1) As will be described below, flumazenil was used as a GABAA receptor antagonist and PK11195 was used as a TSOP receptor antagonist.
With reference to FIG. 10B, the HRECs of Test Example 1 were treated with 0 μM, 0.01 μM, 0.1 μM, 1 μM, 10 μM, 20 μM, and 50 μM flumazenil and 0 μM, 0.01 μM, 0.1 μM, 1 μM, 3 μM, 10 μM, and 30 μM PK11195, cultured for 1 hr, treated with 20 μM midazolam, cultured for 30 min, treated with 10 ng/ml VEGF, incubated for 10 min, treated with 10 μM H2DCFDA, stained for 10 min in a phenol-red-free low-serum medium, and then measured using confocal microscopy to thus determine the fluorescence intensity of single cells.

TGase = test: Identification of receptor of midazolam through TGase activity analysis; type: cell-based, human; conditions: HRECs
Protocol: With reference to FIG. 11A, the HRECs of Test Example 1 were subjected to the respective treatments below, cultured for 2 hr, treated with 1 mM 5-(biotinamido)pentylamine, incubated for 1 hr, fixed with 3.7% formaldehyde, treated with 0.2% triton X-100, treated with a blocking solution containing 138 mM NaCl, 0.1% Tween 20 and 2% BSA dissolved in a 20 mM Tris (pH 7.6) buffer, incubated for 30 min, incubated with FITC-conjugated streptavidin (1:200, v/v) for 1 hr, and then measured using confocal microscopy to thus determine the fluorescence intensity of single cells.
as §1
With reference to FIG. 11B, the HRECs of Test Example 1 were treated with 0 μM, 0.01 μM, 0.1 μM, 1 μM, 10 μM, 20 μM, and 50 μM flumazenil and 0 μM, 0.01 μM, 0.1 μM, 1 μM, 3 μM, 10 μM, and 30 μM PK11195, cultured for 1 hr, treated with 20 μM midazolam, cultured for 30 min, treated with 10 ng/ml VEGF, incubated for 10 min, treated with 1 mM 5-(biotinamido)pentylamine, incubated for 1 hr, fixed with 3.7% formaldehyde, treated with 0.2% triton X-100, treated with a blocking solution containing 138 mM NaCl, 0.1% Tween 20 and 2% BSA dissolved in a 20 mM Tris (pH 7.6) buffer, incubated for 30 min, incubated with FITC-conjugated streptavidin (1:200, v/v) for 1 hr, and then measured using confocal microscopy to thus determine the fluorescence intensity of single cells.

B16F10 cells = test: Hyperglycemia-induced cancer metastasis in lungs of diabetic mice (melanoma nodules); type: in vivo, C57BL/6 mice; conditions: 10 mg/kg midazolam intraperitoneal daily for 14 days, B16F10 cells intravenously (FIG. 22)
Protocol: FIGS. 22A and 22B show the preventive effects of midazolam against hyperglycemia-induced cancer metastasis in the lungs of diabetic mice. Six-week-old male C57BL/6 mice were administered with streptozotocin (150 mg/kg) to give diabetic mouse models. One weeks after streptozotocin injection, diabetic mice were administered 10 mg/kg midazolam by intraperitoneal injection daily for 14 days, and diabetic and midazolam supplemented diabetic mice were intravenously injected with B16F10 cells (5×10^5) in PBS. The weight of mice were measure in diabetic (16.4±0.2 g) and midazolam supplemented diabetic mice (16.2±0.5 g). Blood glucose levels were also monitored in diabetic (511.0±10.0 mg/dL) and midazolam supplemented diabetic mice (515.7±3.4 mg/dL). Two weeks later, the mice were euthanized by cervical dislocation, and the lungs were removed and bleached in Fekete's solution (70% ethanol, 3.7% paraformaldehyde, 0.75 M glacial acetic acid). Representative images of melanoma metastasis in lungs are shown in additional FIG. 22A. The results of melanoma metastasis assessed by counting metastatic lung nodules under a dissection microscope are shown in additional FIG. 22B (n=2/group).

VEGF = test: VEGF-induced vascular leakage in mouse ear (evans blue dye); type: in vivo, C57BL/6 mice; conditions: 24 hr before evans blue dye, 30 ng VEGF intradermally (FIG. 23)
Protocol: Six-week-old male C57BL/6 mice were administered 5 or 10 mg/kg midazolam by intraperitoneal injection. After 24 hr, mice were intravenously injected with 45 mg/kg evans blue dye. After 30 min circulation, 10 μl VEGF solution (30 ng) was injected intradermally into the dorsal part of ears. Representative images of vascular leakage in ears are shown in additional FIG. 23 (n=2/group).

Cc1ncc2n1-c1ccc(Cl)cc1C(c1ccccc1F)=NC2 [midazolam]
β-catenin concentration / adherens junction disruption due to VEGF (β-catenin): exhibited the effect of preventing the adherens junction disruption due to VEGF
ROS concentration (VEGF-induced) compared to control ([1]; 20 μM midazolam 10 min then 10 ng/ml VEGF, no washing (FIG. 10A)): no significant ROS concentration increase was observed
ROS concentration (VEGF-induced, after washing) ([1]; 20 μM midazolam 30 min, washing with serum-free medium, then 10 ng/ml VEGF (FIG. 10A)): ROS concentration was increased
TGase activity (VEGF-induced) compared to control (TGase; 20 μM midazolam 10 min then 10 ng/ml VEGF, no washing (FIG. 11A)): no significant TGase activity increase was observed
TGase activity (VEGF-induced, after washing) (TGase; 20 μM midazolam 30 min, washing with serum-free medium, then 10 ng/ml VEGF (FIG. 11A)): TGase activity was increased
number of metastatic nodules in the lungs (B16F10 cells): the number of metastatic nodules in the lungs of diabetic mice was suppressed
VEGF-induced vascular leakage in mouse ear (VEGF; 5 mg/kg midazolam intraperitoneal): not at 5 mg/kg
VEGF-induced vascular leakage in mouse ear (VEGF; 10 mg/kg midazolam intraperitoneal): suppressed
